Laboratory results published in US20200390767A1, “Formulations of 4-(7-Hydroxy-2-isopropyl-4-oxo-4H-quinazolin-3-yl)-benzonitrile” (NOVARTIS AG, priority 2019, published 2020).

Assays:
PRK surgery patients [1] = test: PRK clinical study, adverse events; format: in vivo, human
Source text: Safety assessments consisted of collecting all AEs, SAES, with their severity and relationship to study drug. Only signs and symptoms greater than the listed ranges of either severity or duration were reported as AEs.
(§1) Adverse events and serious adverse events included an assessment of both systemic and ocular assessments. Systemic safety assessments included regular assessments of height and weight, vital signs, reporting medication errors including misuse/abuse, pregnancy reporting and early phase safety monitoring. The misuse/abuse, pregnancy reporting and early phase safety monitoring were not assessed for the study. Ocular safety assessments included the following: • Best-corrected visual acuity (BCVA) and uncorrected visual acuity (UCVA): Was measured at each visit using an ETDRS visual acuity chart at 4 meters (13 feet) or 1 meter (for patients that cannot read the 4 meter chart). The BCVA scoring was done based on the number of correctly read letters plus 30. If visual acuity was so poor that the patient could not read any of the largest letters at 1 meter, count fingers and hand movement vision and light perception was tested. • Intraocular Pressure (TOP): IOP measurements were conducted with applanation tonometry or Tonopen. • Dilated fundus exam: The dilated fundus examination included ophthalmoscopic assessments of the vitreous, retina/macula/choroid, and optic nerve. Evaluations for retinal tear/detachment, retinal hemorrhage, vitreous hemorrhage density, vitreous haze grading and abnormal findings were done and scored according to grading criteria. • Ocular hyperemia: Conjunctival redness of the bulbar conjunctiva in each eye at the slit lamp according to the McMonnies redness scale was graded. […] By adjusting the calibrated slit beam width and height, the maximum horizontal (wound width) and vertical dimensions (wound height) of the surgical epithelial wound was estimated. The evaluation was performed until wound closure and report of wound size as 0 horizontal and 0 vertical dimensions. • Slit-lamp biomicroscopy: Ocular signs (eyelids/conjunctiva, cornea, lens, and iris/anterior chamber) was assessed in both eyes by slit lamp biomicroscopy according to the grading criteria. • Blink rate: A blink was defined as a bilateral paroxysmal closure of the eyelids (duration <1 second) in the absence of a provoking external stimulus. Each blink assessment lasted for 2 min (or as close to 2 minutes as possible with minimum time 1 minute) and the obtained blink rate was averaged to calculate blink rate in blinks/min. • Tear production (Schirmer's test without anesthesia): The test was performed without anesthetic in both eyes simultaneously. Tear secretion was measured in millimeters of the length of strip wetted by tears. […] The strip was wetted with 1 drop of sterile saline and flicked to remove excess saline. The patient blinked several times to ensure dispersion of the dye throughout the tear film prior to grading on a scale of 0-3 (0=Normal, No staining; 1=Mild, Superficial stippling micropunctate staining; 2=Moderate, Macropunctate staining with some coalescent areas and 3=Severe, Numerous coalescent macropunctate areas and/or patches) for each of 5 zones (central plus 4 quadrants).
A total of 18 AEs were reported in 10 patients (25% of the 40 enrolled patients) of which twelve occurred after treatment with compound I, five after treatment with Vehicle and one occurred in one patient prior to dosing of the study drug. All AEs were either mild or moderate in severity.

[2] = First in human study, plasma pharmacokinetics; format: in vivo
Source text: Accumulation of compound I at steady-state was minor (˜1.7-fold) following administration of 0.15%, 1.5% or 2.5% suspension 4 times daily and also minor (˜1.3-fold) following 2.5% 8 times daily for 7 days.

healthy volunteers = test: First in human study, safety (SAD and MAD adverse events); format: in vivo; conditions: 8 times daily for 7 days
Method: This example describes a first-in-human study of compound I conducted in healthy volunteers. A total of 54 subjects were administered to study medication. Part 1 of the first in human study administered single ascending doses of 0.15%, 1.5%, 2.5% w/v (1 drop) of compound I in an eye drop.
Part 2 tested multiple ascending doses (MAD) of compound I, administering (i) 1 drop of 0.15%, 1.5%, 2.5%, 4 times daily (every 6 hours) for 7 days or (ii) 1 drop of 2.5%, 8 times daily (every 3 hours) for 7 days (supra-therapeutic dose) as eye drops.
Safety assessments: Safety assessments consisted of collecting all adverse events (AEs), serious adverse events (SAEs), including systemic and ocular adverse events, along with their severity and relationship to study drug. Systemic safety assessments included regular monitoring of hematology, blood chemistry and urinalysis performed at study center and regular assessments of physical examination, vital signs (systolic and diastolic blood pressure, pulse rate, and body temperature), ECG, pregnancy and assessments of fertility and hand immersion test at 49° C. during MAD part. Ocular safety assessments included early treatment diabetic retinopathy study (ETDRS) visual acuity, intraocular pressure, slit-lamp biomicroscopy, corneal staining and dilated fundus exam. […]

PRK surgery patients [3] = test: PRK clinical study, ocular safety assessments and vital signs; format: in vivo, human
Source text: as §1

[4] = across the scheduled time points

CC(C)c1nc2cc(O)ccc2c(=O)n1-c1ccc(C#N)cc1 [Compound I, 4-(7-hydroxy-2-isopropyl-4-oxo-4H-quinazolin-3-yl)-benzonitrile]
deaths, SAEs, discontinuations due to AEs (PRK surgery patients [1]; 40 enrolled patients): no deaths or SAEs | eyes (treatment periods) with AEs of moderate severity (PRK surgery patients [1]; five AEs in four patients): four | patients who experienced an AE only during this treatment (PRK surgery patients [1]; human, in vivo): Five | relation of ocular AEs to study drug (PRK surgery patients [1]; human, in vivo): None of the AEs were suspected to be related | patients who developed AEs after treatment (PRK surgery patients [1]; of 40 patients): Eight | number of AEs after treatment (PRK surgery patients [1]; of a total of 18 AEs in 10 patients): twelve | eyes with ocular AEs (mild severity) (PRK surgery patients [1]; six ocular AEs in four patients): three | eyes (treatment periods) with non-ocular AEs (PRK surgery patients [1]; twelve non-ocular AEs in seven patients): six | Accumulation at steady-state ([2]; 0.15%, 1.5% or 2.5% suspension 4 times daily): ~1.7 fold | Accumulation at steady-state ([2]; 2.5%, 8 times daily for 7 days): ~1.3 fold | increase in systemic exposure with dose ([2]; increase in dose from 0.15% to 2.5%): less than dose-proportional increase | dose limiting adverse events (healthy volunteers; 2.5%): No dose limiting adverse events were identified | Maximum Tolerated Dose (MTD) (healthy volunteers; eye drops, healthy volunteers): 2.5% | Ocular hyperemia, grade 4 (McMonnies scale), versus Vehicle (PRK surgery patients [3]; Day 2 postoperatively (24 hours after PRK surgery), all quadrants): less grade 4 hyperemia | Ocular hyperemia, grade 3 (McMonnies scale), versus Vehicle (PRK surgery patients [3]; Day 3 (48 hours post-operative)): less grade 3 hyperemia | Dilated fundus exam (PRK surgery patients [3]; [4]): No abnormal findings | Slit-lamp biomicroscopy: aqueous flare, inflammatory cell grade, iris/anterior chamber, lens (PRK surgery patients [3]; [4]): No abnormalities were observed | Corneal staining versus Vehicle (PRK surgery patients [3]; baseline, Day 8, EOS visit): No clinical differences were observed | vital sign parameters (PRK surgery patients [3]; during the study): within the normal range | BCVA and UCVA versus Vehicle (PRK surgery patients [3]; throughout the study): did not result in any trend or obvious difference | Blink rate versus Vehicle (PRK surgery patients [3]; throughout the study): no trend across the scheduled time points or obvious differences | Intraocular pressure versus Vehicle (PRK surgery patients [3]; throughout the study): No trend across the scheduled time points or obvious differences
